Measurements reported in the Deep4Chem optical property database.
One block for each molecule: values may come before it.

Assay: photoluminescence quantum yield (fraction); solvent given as SMILES

photoluminescence quantum yield (in C1CCOC1): 0.4 | photoluminescence quantum yield (in CC#N): 0.02 | photoluminescence quantum yield (in CCO): 0.01 | photoluminescence quantum yield (in CCOC(C)=O): 0.34 | photoluminescence quantum yield (in CN(C)C=O): 0.02 | photoluminescence quantum yield (in ClCCl): 0.21 | photoluminescence quantum yield (in c1ccccc1): 0.74
Structure (SMILES): O=C(c1ccc(N(c2ccccc2)c2ccccc2)cc1)[C@H]1[C@H](c2ccc(F)cc2)C[C@](O)(c2ccccn2)C[C@]1(O)c1ccccn1

photoluminescence quantum yield (in ClCCl): 0.004
Structure (SMILES): N#Cc1ccc(/C2=C3N=C(C(c4ccccc4)=C/3c3ccccc3)/C(c3ccc(C#N)cc3)=c3\[nH]/c(c(-c4ccccc4)c3-c3ccccc3)=C(/c3ccc(C#N)cc3)C3=N/C(=C(/c4ccc(C#N)cc4)c4[nH]c2c(-c2ccccc2)c4-c2ccccc2)C(c2ccccc2)=C3c2ccccc2)cc1

photoluminescence quantum yield (in ClCCl): 0.145
Structure (SMILES): COc1ccc(C#CC2=C3CCc4ccccc4C3=[O+][B-](F)(F)O2)cc1

photoluminescence quantum yield (in CO): 0.07 | photoluminescence quantum yield (in O): 0.004
Structure (SMILES): CN(C)c1ccc2c(c1)[Si](C)(C)C1=CC(=[N+](C)C)C=CC1=C2C#Cc1ccccc1

photoluminescence quantum yield (in ClCCl): 0.32
Structure (SMILES): N#Cc1cc(/C=C/c2ccc(/C=C/c3ccc(N(c4ccccc4)c4ccccc4)cc3)c(C#N)c2)ccc1/C=C/c1ccc(N(c2ccccc2)c2ccccc2)cc1

photoluminescence quantum yield (in ClC(Cl)Cl): 0.24
Structure (SMILES): O=C1[C@@H]2[C@H](C(=O)N1c1ccc3cc4ccccc4cc3c1)[C@@H]1C=C[C@H]2C1

photoluminescence quantum yield (in CC#N): 0.22 | photoluminescence quantum yield (in CCO): 0.34 | photoluminescence quantum yield (in CO): 0.33 | photoluminescence quantum yield (in ClC(Cl)Cl): 0.48
Structure (SMILES): CCNc1cc2c(cc1C)C(c1ccccc1C(=O)O)=C1CCCC(/C=C/C3=[N+](C)c4ccc5ccccc5c4C3(C)C)=C1O2

photoluminescence quantum yield (in CO): 0.008
Structure (SMILES): N#Cc1c(-n2nnc3cc(Cl)ccc32)n([C@H]2C[C@H](O)[C@@H](CO)O2)c2ncnc(N)c12

photoluminescence quantum yield (in CC#N): 0.56 | photoluminescence quantum yield (in CCCCCC): 0.12 | photoluminescence quantum yield (in CO): 0.5 | photoluminescence quantum yield (in c1ccccc1): 0.46
Structure (SMILES): O=c1oc2ccc3ccccc3c2nc1-c1ccccc1

photoluminescence quantum yield (in C1COCCO1): 0.033
Structure (SMILES): CC(C)CN1C(=O)/C(=C/c2ccc([N+](=O)[O-])cc2)C=C1c1ccccc1

photoluminescence quantum yield (in CC#N): 0.936 | photoluminescence quantum yield (in CO): 0.98
Structure (SMILES): COc1ccc(-n2nc(C#N)c(N3CCCC3)n2)cc1

photoluminescence quantum yield (in C1CCOC1): 0.67
Structure (SMILES): Cc1ccc(C2=C3C=C4C(=[N+]3[B-](F)(F)n3c2cc2c3-c3ccccc3C23c2ccccc2-c2ccccc23)c2ccccc2C42c3ccccc3-c3ccccc32)cc1

photoluminescence quantum yield (in C1COCCO1): 0.52 | photoluminescence quantum yield (in CC#N): 0.42 | photoluminescence quantum yield (in CCCCOCCCC): 0.5 | photoluminescence quantum yield (in CCOC(C)=O): 0.44
Structure (SMILES): c1ccc(Nc2nc(Nc3ccccc3)nc(Nc3ccc4c5cccc6cccc(c7cccc3c74)c65)n2)cc1

photoluminescence quantum yield (in CC#N): 0.25 | photoluminescence quantum yield (in CCO): 0.34 | photoluminescence quantum yield (in CO): 0.35 | photoluminescence quantum yield (in ClC(Cl)Cl): 0.51
Structure (SMILES): C[N+]1=C(/C=C/C2=C3Oc4c(cc5c6c4CCCN6CCC5)C(c4ccccc4C(=O)O)=C3CCC2)C(C)(C)c2ccccc21

photoluminescence quantum yield (in ClCCl): 0.17
Structure (SMILES): N#CC1N=c2cc3c4c(cccc4c2=NC1C#N)C(c1ccccc1)=C(c1ccccc1)O3 (stereo not drawn)

photoluminescence quantum yield (in ClCCl): 0.08
Structure (SMILES): CC1=c2ccccc2=[N+]2C1=Cc1c3ccccc3c(-c3[nH]c4ccccc4c3C)n1[B-]2(F)F

photoluminescence quantum yield (in C1CCCCC1): 0.57
Structure (SMILES): C1=Cc2ccc3ccccc3c2NB1c1ccccc1

photoluminescence quantum yield (in ClCCl): 0.72
Structure (SMILES): CN(C)c1cc(-c2ccccc2)cc2cc(C#Cc3ccncc3)ccc12

photoluminescence quantum yield (in C1CCCCC1): 0.04 | photoluminescence quantum yield (in CO): 0.007
Structure (SMILES): C(=C\c1nc2ccccc2s1)/c1ccccc1

photoluminescence quantum yield (in CO): 0.03
Structure (SMILES): COc1ccc(O)c(C=O)c1

photoluminescence quantum yield (in CC#N): 0.97 | photoluminescence quantum yield (in CO): 0.74 | photoluminescence quantum yield (in CS(C)=O): 0.12 | photoluminescence quantum yield (in ClC(Cl)Cl): 1
Structure (SMILES): O=C1c2ccccc2C2=Cc3ccccc3B(O)N12

Second part, the molecule before the results:

Structure (SMILES): COC(=O)c1[nH]c(-c2ccccc2)c2nnc3ccsc3c12
photoluminescence quantum yield (in ClCCl): 0.111

Structure (SMILES): COc1nc(Nc2ccc3c4c(cccc24)C(=O)c2ccccc2-3)nc(OC)n1
photoluminescence quantum yield (in CC#N): 0.59 | photoluminescence quantum yield (in CC(C)=O): 0.66 | photoluminescence quantum yield (in CC(C)O): 0.38 | photoluminescence quantum yield (in CCCCOCCCC): 0.22 | photoluminescence quantum yield (in CCOC(C)=O): 0.58 | photoluminescence quantum yield (in CCOCC): 0.39 | photoluminescence quantum yield (in CO): 0.3 | photoluminescence quantum yield (in Cc1ccccc1): 0.56 | photoluminescence quantum yield (in Clc1ccccc1): 0.66 | photoluminescence quantum yield (in N#Cc1ccccc1): 0.64 | photoluminescence quantum yield (in O=C1CCCCC1): 0.67

Structure (SMILES): COc1ccc(-c2nc(-c3ccccc3)c(N(C)C)[se]2)cc1
photoluminescence quantum yield (in ClC(Cl)Cl): 0.039

Structure (SMILES): N#C/C(=C\c1ccc(C#N)cc1)c1nc(-c2ccccc2)cs1
photoluminescence quantum yield (in CC#N): 0.18 | photoluminescence quantum yield (in CCO): 0.18 | photoluminescence quantum yield (in CN(C)C=O): 0.272 | photoluminescence quantum yield (in Cc1ccccc1): 0.098 | photoluminescence quantum yield (in ClCCl): 0.131

Structure (SMILES): c1ccc(-c2nc(-c3ccc(-c4nc(-c5ccccc5)c(-c5ccccc5)o4)cc3)oc2-c2ccccc2)cc1
photoluminescence quantum yield (in C1COCCO1): 0.63

Structure (SMILES): Cc1nc(-c2ccc(-n3c4ccccc4c4ccccc43)cc2)cc(-c2ccc(-n3c4ccccc4c4ccccc43)cc2)n1
photoluminescence quantum yield (in C1CCOC1): 0.61 | photoluminescence quantum yield (in CN(C)C=O): 0.73 | photoluminescence quantum yield (in Cc1ccccc1): 0.65 | photoluminescence quantum yield (in ClC(Cl)Cl): 0.61

Structure (SMILES): Nc1ccc2c(c1)C(=O)O/C2=C\c1ccc(Cl)cc1
photoluminescence quantum yield (in CC#N): 0.08 | photoluminescence quantum yield (in CC(C)=O): 0.1 | photoluminescence quantum yield (in CC(C)CO): 0.2 | photoluminescence quantum yield (in CC(C)O): 0.18 | photoluminescence quantum yield (in CCCO): 0.18 | photoluminescence quantum yield (in CCO): 0.17 | photoluminescence quantum yield (in CCOC(C)=O): 0.11 | photoluminescence quantum yield (in CCOCC): 0.12 | photoluminescence quantum yield (in CO): 0.14

Structure (SMILES): CCn1c2ccccc2c2cc(-c3cc(-c4ccc5c(c4)c4ccccc4n5CC)ncn3)ccc21
photoluminescence quantum yield (in C1CCOC1): 0.44 | photoluminescence quantum yield (in CCOC(C)=O): 0.8 | photoluminescence quantum yield (in CN(C)C=O): 0.76 | photoluminescence quantum yield (in Cc1ccccc1): 0.73 | photoluminescence quantum yield (in ClCCl): 0.75

Structure (SMILES): COc1cc2c(cc1-c1ccc(C(F)(F)F)cc1)Cc1c3c(c4c(c1-2)-c1cc(OC)c(-c2ccc(C(F)(F)F)cc2)cc1C4)C(=O)N(CCC(C)C)C3=O
photoluminescence quantum yield (in C1CCOC1): 0.45

Structure (SMILES): Cc1cc(-c2ccc(C(C)(C)C)cc2)cc(C)[o+]1
photoluminescence quantum yield (in CC#N): 0.36 | photoluminescence quantum yield (in ClCCl): 0.25

Structure (SMILES): COc1ccc(CCNC(=O)c2sc(-c3ccc(-c4cc(-c5ccc(C(C)(C)C)cc5)c(C(=O)NCCc5ccc(OC)c(OC)c5)s4)s3)cc2-c2ccc(C(C)(C)C)cc2)cc1OC
photoluminescence quantum yield (in ClCCl): 0.27

Structure (SMILES): Cc1ccc(C2=C3C=CC(Sc4ccccc4)=[N+]3[B-](F)(F)n3c(Sc4ccccc4)ccc32)cc1
photoluminescence quantum yield (in C1CCOC1): 0.82

Structure (SMILES): CC1(C)c2ccccc2-n2c(-c3ccc(-n4c5ccccc5c5ccccc54)cc3)nc3cccc1c32
photoluminescence quantum yield (in Cc1ccccc1): 0.99 | photoluminescence quantum yield (in O=P(c1ccccc1)(c1ccccc1)c1ccccc1Oc1ccccc1P(=O)(c1ccccc1)c1ccccc1): 0.85

Structure (SMILES): CCN(CC)c1ccc2cc(/C=C(\C#N)c3nc4ccccc4o3)c(=O)oc2c1
photoluminescence quantum yield (in C1COCCO1): 0.0097 | photoluminescence quantum yield (in CC#N): 0.0071 | photoluminescence quantum yield (in CCO): 0.0158 | photoluminescence quantum yield (in CCOC(C)=O): 0.0068 | photoluminescence quantum yield (in CN(C)C=O): 0.0307 | photoluminescence quantum yield (in CO): 0.0157 | photoluminescence quantum yield (in CS(C)=O): 0.0263 | photoluminescence quantum yield (in Cc1ccccc1): 0.0061 | photoluminescence quantum yield (in ClCCl): 0.0066

Structure (SMILES): CN1C(C(=O)Nc2ccccn2)=C([O-])c2sccc2S1(=O)=O
photoluminescence quantum yield (in CCCCO): 0.0112 | photoluminescence quantum yield (in CCCO): 0.0085 | photoluminescence quantum yield (in CCO): 0.00451 | photoluminescence quantum yield (in CO): 0.00214

Structure (SMILES): CCCCC(CC)COc1cc(OCC(CC)CCCC)c2c#cc3ccc4sc5ccc(c#cc6cc(c#cc7ccc8sc9ccc(c#cc1c2)cc9c8c7)c(C(CCCC)OCCC)cc6C(CCCC)OCCC)cc5c4c3 (stereo not drawn)
photoluminescence quantum yield (in ClCCl): 0.22
